# Reference: patent publication US5912233A, “Methods and peptides for the treatment of non-IgE-mediated diseases” (Dura Pharmaceuticals, Inc., priority 1995, dated 1999)
# Values joined by “and” are separate entries in the source; they are usually repeats but may differ in a detail not shown here. Equal values may be shown once. Residues, ends and D or L forms follow the SMILES beside them. No end group written: not given here.
# Tests used:
# [1] = test system: tetanus toxoid-induced DTH reactions; set-up: species or system Balb/C mice; conditions: mouse, in vivo
# [2] = test system: carrageenan-induced inflammation; assay: Carrageenan-induced footpad edema; type: in vivo, Balb/C mice; conditions: 10 mg/kg s.c. 24 hours prior to carrageenan
# Experimental: In order to examine the ability of pentigetide to inhibit carrageenan-induced inflammation, female Balb/C mice were injected with 0.025 ml of 1.0% carrageenan solution (type lx carrageenan: Sigma No. C-1013, Lot No. 86F-0698) or saline in the right hind footpad 5 minutes after intravenous tail vein injection of 0.2 ml pentigetide (1.0 mg/kg) or saline solution. Indomethacin (10 mg/kg was used as a positive control and was administered by subcutaneous injection 24 hours prior to carrageenan injection. Footpad volumes were measured using a Buxco plethysmograph over a 6 hour period. Pentigetide produced substantial inhibition of carrageenan-induced inflammation when compared to saline control animals.
# [3] = test system: sheep erythrocyte (SRBC)-induced DTH reactions; assay: Sheep erythrocyte (SRBC)-induced DTH, footpad volume; type: in vivo, Balb/C mice; conditions: indomethacin 1.0 mg/kg, day 4; positive control
# [4] = test system: chronic idiopathic urticaria; conditions: human, in vivo
# [5] = test system: immune complex-mediated ulcerative colitis; assay: Immune complex-induced ulcerative colitis model (formalin + IgG immune complexes); type: in vivo, BKA mice; conditions: prednisolone 5.0 mg/kg i.p.
# Experimental: A mouse model of intestinal inflammation was employed wherein the efficacy of pentigetide in reducing inflammation induced by formalin and complementfixing lgG immune complexes was measured. This model is particularly useful as a model of human ulcerative colitis and shares many clinical and histological functions of the human disease including sensitivity to glucocorticoids, sulfasalazine and 5-aminosalicylic acid (see L. P. Walsh, et al., British J. Pharm. 91:294 (1987); A. Blackham, et al., British J. Pharm. 89:694 (1986); L. D. Walsh and I. J. Zeitlin, British J. Pharm. 92:741 (1987)). The mouse model of intestinal inflammation used in these studies is induced by the exposure of the animals to chemicals which are known to trigger inflammatory processes in both animals and humans. […]
# Colonic tissue water content was determined by tissue weight loss on drying of colonic tissues. […]
# The response to immune complex alone was determined quantitatively by subtracting the mean value in group B from the mean value in group C. An estimate of the percentage reduction in this response produced by the drug was calculated as: [formula] […] Statistical significance was determined using the non-parametric Mann-Whitney U-test. […]
# [6] = test system: lymphoblastoid tissue culture cells; conditions: two trials; U.S. Pat. No. 4,161,522; cited from earlier work
# [7] = test system: immunoglobulin Fc receptors; conditions: U.S. Pat. No. 4,628,045; cited from earlier work
compound,measurement,setting,value
"COc1ccc2c(c1)c(CC(=O)O)c(C)n2C(=O)c1ccc(Cl)cc1 [Indomethacin, indomethacin]",inhibition (footpad swelling),[1],45%
same,Percent Inhibition,[2]; 1.0 hours after carrageenan injection,-35%
same,Percent Inhibition,[2]; 2.0 hours after carrageenan injection,-60%
same,Percent Inhibition,[2]; 4.0 hours after carrageenan injection,-39%
same,Percent Inhibition,[2]; 6.0 hours after carrageenan injection,-47%
same,inhibition (footpad swelling),[3],43%
"N=C(N)NCCC[C@H](NC(=O)[C@@H]1CCCN1C(=O)[C@H](CC(=O)O)NC(=O)[C@H](CO)NC(=O)[C@@H](N)CC(=O)O)C(=O)O [pentigetide, Asp-Ser-Asp-Pro-Arg] (H-DSDPR-OH)",side effects,[4],did not experience any side effects
C[C@]12C=CC(=O)C=C1CC[C@@H]1[C@@H]2[C@@H](O)C[C@@]2(C)[C@H]1CC[C@]2(O)C(=O)CO [prednisolone],reduction of colonic edema,"[5]; three days prior and daily thereafter, p<0.01",86.2%
same,reduction of colonic edema (in the colitic sign score paragraph),[5]; p<0.001,93.8%
Asn-Ser-Asn-Pro-Arg (NSNPR; printed: Asn-Ser-Asn-Pro-Arg),activity in blocking binding of IgE to lymphoblastoid tissue culture cells,[6],lower activity
Asn-Ser-Asp-Pro-Arg (NSDPR; printed: Asn-Ser-Asp-Pro-Arg),activity in blocking binding of IgE to lymphoblastoid tissue culture cells,[6],lower activity
Asp-Ser-Glu-Pro-Arg (DSEPR; printed: Asp-Ser-Glu-Pro-Arg),blocking of immune complex binding to immunoglobulin Fc receptors,[7],capable of blocking immune complex binding
[-Cys-Ala-Asn-Ser-Asn-Pro-Arg]2 (CANSNPR; also: dimer),activity in blocking binding of IgE to lymphoblastoid tissue culture cells,[6],9% and 12%
